# Several values for one entry are separate records, joined by “and”; a condition that tells them apart may be missing. Equal entries are not always repeated.
# How the values were obtained:
# SNB-19 = test: NCI single dose (10 µM) SRB screen; assay type: cell-based, human; conditions: CNS cancer, 48 h
# PC-3 = test: NCI single dose (10 µM) SRB screen; assay type: cell-based, human; conditions: prostate cancer, 48 h
# ACHN = test: NCI single dose (10 µM) SRB screen; assay type: cell-based, human; conditions: renal cancer, 48 h
# SF-539 = test: NCI single dose (10 µM) SRB screen; assay type: cell-based, human; conditions: CNS cancer, 48 h
# SNB-75 = test: NCI single dose (10 µM) SRB screen; assay type: cell-based, human; conditions: CNS cancer, 48 h
# OVCAR-3 = test: NCI single dose (10 µM) SRB screen; assay type: cell-based, human; conditions: ovarian cancer, 48 h
# HCC-2998 = test: NCI single dose (10 µM) SRB screen; assay type: cell-based, human; conditions: colon cancer, 48 h
# NCI/ADR-RES = test: NCI single dose (10 µM) SRB screen; assay type: cell-based, human; conditions: ovarian cancer, 48 h
# MALME-3M = test: NCI single dose (10 µM) SRB screen; assay type: cell-based, human; conditions: melanoma, 48 h
# SK-OV-3 = test: NCI single dose (10 µM) SRB screen; assay type: cell-based, human; conditions: ovarian cancer, 48 h
# LOX IMVI = test: NCI single dose (10 µM) SRB screen; assay type: cell-based, human; conditions: melanoma, 48 h
# MOLT-4 = test: NCI single dose (10 µM) SRB screen; assay type: cell-based, human; conditions: leukaemia, 48 h
# HCT-15 = test: NCI single dose (10 µM) SRB screen; assay type: cell-based, human; conditions: colon cancer, 48 h
# A549/ATCC = test: NCI single dose (10 µM) SRB screen; assay type: cell-based, human; conditions: non-small cell lung cancer, 48 h
# OVCAR-5 = test: NCI single dose (10 µM) SRB screen; assay type: cell-based, human; conditions: ovarian cancer, 48 h
# NCI-H460 = test: NCI single dose (10 µM) SRB screen; assay type: cell-based, human; conditions: non-small cell lung cancer, 48 h
# CAKI-1 = test: NCI single dose (10 µM) SRB screen; assay type: cell-based, human; conditions: renal cancer, 48 h
# HCT-116 = test: NCI single dose (10 µM) SRB screen; assay type: cell-based, human; conditions: colon cancer, 48 h
# SF-295 = test: NCI single dose (10 µM) SRB screen; assay type: cell-based, human; conditions: CNS cancer, 48 h
# RXF 393 = test: NCI single dose (10 µM) SRB screen; assay type: cell-based, human; conditions: renal cancer, 48 h
# 786-0 = test: NCI single dose (10 µM) SRB screen; assay type: cell-based, human; conditions: renal cancer, 48 h
# NCI 60 cancer cell lines = test: NCI single dose (10 µM) SRB screen, mean over panel; assay type: cell-based, human; conditions: mean over 60 cell lines, 48 h
# U251 = test: NCI single dose (10 µM) SRB screen; assay type: cell-based, human; conditions: CNS cancer, 48 h
# Candida albicans = test: Agar well diffusion method
# UACC-257 = test: NCI single dose (10 µM) SRB screen; assay type: cell-based, human; conditions: melanoma, 48 h
# SK-MEL-2 = test: NCI single dose (10 µM) SRB screen; assay type: cell-based, human; conditions: melanoma, 48 h
# HL-60(TB) = test: NCI single dose (10 µM) SRB screen; assay type: cell-based, human; conditions: leukaemia, 48 h
# A498 = test: NCI single dose (10 µM) SRB screen; assay type: cell-based, human; conditions: renal cancer, 48 h
# K-562 = test: NCI single dose (10 µM) SRB screen; assay type: cell-based, human; conditions: leukaemia, 48 h
# NCI-H322M = test: NCI single dose (10 µM) SRB screen; assay type: cell-based; conditions: non-small cell lung cancer, 48 h
# SN12C = test: NCI single dose (10 µM) SRB screen; assay type: cell-based, human; conditions: renal cancer, 48 h
# MDA-MB-231 = test: NCI single dose (10 µM) SRB screen; assay type: cell-based, human; conditions: breast cancer, 48 h
# EKVX = test: NCI single dose (10 µM) SRB screen; assay type: cell-based, human; conditions: non-small cell lung cancer, 48 h
# HS578T = test: NCI single dose (10 µM) SRB screen; assay type: cell-based, human; conditions: breast cancer, 48 h
# SF-268 = test: NCI single dose (10 µM) SRB screen; assay type: cell-based, human; conditions: CNS cancer, 48 h
# CCRF-CEM = test: NCI single dose (10 µM) SRB screen; assay type: cell-based, human; conditions: leukaemia, 48 h
# Staphylococcus aureus = test: Agar well diffusion method
# NCI-H23 = test: NCI single dose (10 µM) SRB screen; assay type: cell-based, human; conditions: non-small cell lung cancer, 48 h
# UO-31 = test: NCI single dose (10 µM) SRB screen; assay type: cell-based, human; conditions: renal cancer, 48 h
# COLO 205 = test: NCI single dose (10 µM) SRB screen; assay type: cell-based, human; conditions: colon cancer, 48 h
# RPMI-8226 = test: NCI single dose (10 µM) SRB screen; assay type: cell-based, human; conditions: leukaemia, 48 h
# T-47D = test: NCI single dose (10 µM) SRB screen; assay type: cell-based, human; conditions: breast cancer, 48 h
# OVCAR-8 = test: NCI single dose (10 µM) SRB screen; assay type: cell-based, human; conditions: ovarian cancer, 48 h
# OVCAR-4 = test: NCI single dose (10 µM) SRB screen; assay type: cell-based, human; conditions: ovarian cancer, 48 h
# BT-549 = test: NCI single dose (10 µM) SRB screen; assay type: cell-based, human; conditions: breast cancer, 48 h
# IGROV1 = test: NCI single dose (10 µM) SRB screen; assay type: cell-based, human; conditions: ovarian cancer, 48 h
# MDA-MB-468 = test: NCI single dose (10 µM) SRB screen; assay type: cell-based, human; conditions: breast cancer, 48 h
# M14 = test: NCI single dose (10 µM) SRB screen; assay type: cell-based, human; conditions: melanoma, 48 h
# HT29 = test: NCI single dose (10 µM) SRB screen; assay type: cell-based, human; conditions: colon cancer, 48 h
# TK-10 = test: NCI single dose (10 µM) SRB screen; assay type: cell-based, human; conditions: renal cancer, 48 h
# HOP-92 = test: NCI single dose (10 µM) SRB screen; assay type: cell-based, human; conditions: non-small cell lung cancer, 48 h
# MDA-MB-435 = test: NCI single dose (10 µM) SRB screen; assay type: cell-based, human; conditions: melanoma, 48 h
# Aspergillus flavus = test: Agar well diffusion method
structure (smiles),measurement,setting,value
"CCOC(=O)C1=C(C)NC(C)=C(C(=O)OC(C)(C)C)C1c1cccc(C#N)c1 (racemic) [Compound 2j, (±)-3-Tert-butyl 5-ethyl 4-(3-cyanophenyl)-2,6-dimethyl-1,4-dihydropyridine-3,5-dicarboxylate]",GI% SNB-19,SNB-19,– (Only GI% ≥ 10 are shown)
same,GI% PC-3,PC-3,18%
same,GI% ACHN,ACHN,– (Only GI% ≥ 10 are shown)
same,GI% SF-539,SF-539,– (Only GI% ≥ 10 are shown)
same,GI% SNB-75,SNB-75,22%
same,GI% OVCAR-3,OVCAR-3,– (Only GI% ≥ 10 are shown)
same,GI% HCC-2998,HCC-2998,– (Only GI% ≥ 10 are shown)
same,GI% NCI/ADR-RES,NCI/ADR-RES,10%
same,GI% MALME-3M,MALME-3M,– (Only GI% ≥ 10 are shown)
same,GI% SK-OV-3,SK-OV-3,– (Only GI% ≥ 10 are shown)
same,GI% LOX IMVI,LOX IMVI,– (Only GI% ≥ 10 are shown)
same,GI% MOLT-4,MOLT-4,17%
same,GI% HCT-15,HCT-15,– (Only GI% ≥ 10 are shown)
same,GI% A549/ATCC,A549/ATCC,11%
same,GI% OVCAR-5,OVCAR-5,– (Only GI% ≥ 10 are shown)
same,GI% NCI-H460,NCI-H460,– (Only GI% ≥ 10 are shown)
same,GI% CAKI-1,CAKI-1,17%
same,GI% HCT-116,HCT-116,13%
same,GI% SF-295,SF-295,– (Only GI% ≥ 10 are shown)
same,GI% RXF 393,RXF 393,– (Only GI% ≥ 10 are shown)
same,GI% 786-0,786-0,13%
same,Mean GI%,NCI 60 cancer cell lines,4%
same,GI% U251,U251,– (Only GI% ≥ 10 are shown)
same,zone of inhibition at 1000 µg/mL,"Candida albicans; Candida albicans, 24 h, read-out: Diameter of inhibition zone, C. albicans",19 mm
same,"% activity index, C. albicans",Candida albicans; relative to clotrimazole,70% and 70.4%
same,GI% UACC-257,UACC-257,– (Only GI% ≥ 10 are shown)
same,GI% SK-MEL-2,SK-MEL-2,– (Only GI% ≥ 10 are shown)
same,GI% HL-60(TB),HL-60(TB),19%
same,GI% A498,A498,– (Only GI% ≥ 10 are shown)
same,GI% K-562,K-562,17%
same,GI% NCI-H322M,NCI-H322M,– (Only GI% ≥ 10 are shown)
same,GI% SN12C,SN12C,– (Only GI% ≥ 10 are shown)
same,GI% MDA-MB-231,MDA-MB-231,– (Only GI% ≥ 10 are shown)
same,GI% EKVX,EKVX,10%
same,GI% HS578T,HS578T,– (Only GI% ≥ 10 are shown)
same,GI% SF-268,SF-268,– (Only GI% ≥ 10 are shown)
same,GI% CCRF-CEM,CCRF-CEM,– (Only GI% ≥ 10 are shown)
same,zone of inhibition at 1000 µg/mL,"Staphylococcus aureus; Staphylococcus aureus, 24 h, read-out: Diameter of inhibition zone, S. aureus",18 mm
same,"% activity index, S. aureus",Staphylococcus aureus; relative to ciprofloxacin,75%
same,GI% NCI-H23,NCI-H23,– (Only GI% ≥ 10 are shown)
same,GI% UO-31,UO-31,– (Only GI% ≥ 10 are shown)
same,GI% COLO 205,COLO 205,– (Only GI% ≥ 10 are shown)
same,GI% RPMI-8226,RPMI-8226,12%
same,GI% T-47D,T-47D,– (Only GI% ≥ 10 are shown)
same,GI% OVCAR-8,OVCAR-8,– (Only GI% ≥ 10 are shown)
same,GI% OVCAR-4,OVCAR-4,– (Only GI% ≥ 10 are shown)
same,GI% BT-549,BT-549,– (Only GI% ≥ 10 are shown)
same,GI% IGROV1,IGROV1,– (Only GI% ≥ 10 are shown)
same,GI% MDA-MB-468,MDA-MB-468,10%
same,GI% M14,M14,– (Only GI% ≥ 10 are shown)
same,GI% HT29,HT29,– (Only GI% ≥ 10 are shown)
same,GI% TK-10,TK-10,– (Only GI% ≥ 10 are shown)
same,GI% HOP-92,HOP-92,– (Only GI% ≥ 10 are shown)
same,GI% MDA-MB-435,MDA-MB-435,– (Only GI% ≥ 10 are shown)
same,zone of inhibition at 1000 µg/mL,"Aspergillus flavus; Aspergillus flavus, 24 h, read-out: Diameter of inhibition zone, A. flavus",20 mm
same,"% activity index, A. flavus",Aspergillus flavus; relative to clotrimazole,80%
